Measurements as given in patent US12502369B2, “Methods of cancer treatment” (K-GEN, INC., priority 2015, dated 2025).
Entries after “also recorded” stand apart in the source; their conditions may differ.

How the values were obtained:
A549 cells = experiment: Soft agar colony formation assay; type: cell-based
Procedure: To prepare the base agar layer (0.6%), melted 1.2% agar solution was mixed 1:1 (v/v) with 2×DMEM/20% FBS medium in a tube by inverting several times and 50 μL of the mixture was immediately transferred to a well in a 96-well flat-bottom microplate. The plate was placed at 4° C. for 30 minutes to allow the base agar layer to solidify. Then, the cell agar layer (agar 0.4%) was prepared by transferring 75 μL of the cell and agar mixture containing 1:1:1 (v/v/v) of 1.2% agar solution, 2×DMEM/20% FBS and cell suspension (0.4-4×10^5/mL) to each well of the plates so that each well contained 1000-10000 cells per well. The plates were placed at 4° C. for 15 minutes and then 75 μL of media were added to each well. After incubating the plates overnight in a CO2 incubator, 50 μL of media with or without 5× final concentrations of compounds were added to each well. Each compound was tested in 9-point 3-fold dilution series. The plates were incubated for 7-10 days at 37° C. At the end of incubation period, 28 μL of Calcein AM solution (5 μM) was added to the center of each well. The plates were incubated at 37° C. for 45 minutes before scanning on Acumen (TTP Labtech). Each compound was tested in triplicates. Data was analyzed and compound EC50s were calculated using GraphPad Prism 5.

[1] = test system: PKC substrates in A549 cells; experiment: Global PKC activation (phosphorylated PKC substrates), Western blot, A549; type: cell-based; details: 30 minutes, Phospho-PKC substrate Motif MultiMab
Procedure: (§1) A549 lung cancer cells (˜3 million cells) were seeded in 10 cm tissue culture dishes and grown overnight. Cells were then treated with different drugs at indicated concentrations (see FIG. 9A for global activation of PKC and FIG. 10 for activation of PKC isoforms) for 30 minutes. Panc2.13 pancreatic cells (˜5 million) were seeded and treated as in FIG. 9B for global activation of PKC. Cell lysate preparation, protein quantitation, SDS-PAGE, and Western blotting procedures are described in Example 2. Primary antibodies used in this Example and later Examples of this application are shown in Table A. Western blot membranes were scanned using Odyssey® Imaging System (Licor Biosciences) if secondary antibodies Anti-mouse IgG Dylight 800 conjugate or Anti-rabbit IgG DyLight 680 conjugate (1:10000)(Cell signaling or similar IR 2nd antibodies from different vendors) were used. Alternatively, Imagequant LAS4000 (GE) was used to scan membranes if secondary antibodies Anti-mouse IgG HRP conjugate or Anti-rabbit IgG HRP conjugate (dilutions from 1:2000-1:10000) were used.

[2] = test system: PKC substrates in Panc2.13 cells; experiment: Global PKC activation (phosphorylated PKC substrates), Western blot, Panc2.13; type: cell-based; details: Phospho-(Ser) PKC Substrate Antibody
Procedure: as §1

[3] = test system: PKC isoforms in A549 cells; experiment: Activation of PKC isoforms, Western blot, A549; type: cell-based; details: 30 minutes
Procedure: as §1

PKCμ = PKCμ phosphorylation in A549, HCT116, SW620, Panc02.13 cells, Western blot; type: cell-based; details: 30 minutes
Procedure: (§2) Non-cancerous lung fibroblast cell line HFL-1 or cancer cells (2-8 million cells) were seeded in 10 cm dishes and grown overnight so that the cells were about 40-80% confluent before treatment with the compound. Cells were then treated with different drugs at indicated concentrations (see descriptions for FIG. 11 and FIG. 12) for 30 minutes. Cell lysate preparation, protein quantitation, SDS-PAGE, and Western blotting procedures are described in Example 2 and 4. Primary antibodies used in this Example and later Examples of this application are shown in Table A. Secondary antibodies Anti-mouse IgG HRP conjugate or Anti-rabbit IgG HRP conjugate (dilutions from 1:2000-1:10000) were used. Western blot membranes were scanned using Imagequant LAS4000 (GE).

PKCδ = PKCδ Tyr311 phosphorylation in A549, HCT116, SW620, Panc02.13 cells, Western blot; type: cell-based; details: 30 minutes
Procedure: as §2, with “(GE). The results are shown in FIG. 11A and FIG. 11B for HFL-1 cells and FIG. 11C and FIG. 12 for A549 cells.” for “(GE).”

[4] = test system: PKC isoforms in Panc2.13 cells; experiment: Time course of activation of PKC isoforms in Panc2.13; type: cell-based; details: extended periods (16 h and 24 h), K102 0.1 μM, K103 0.01 μM versus K101A
Procedure: Cells of pancreatic cancer cell line Panc2.13 were seeded as described above, and the cell confluence was between 40-80% the next day. […] Phosphorylation at multiple PKC isoforms, such as Ser744/748 or Ser916 for PKCμ, phosphorylation at Thr638/641 for PKCα/β, phosphorylation at Ser660 for PKCβII (pan-PKC), phosphorylation at Ser643/676 for PKCδ/θ, and phosphorylation at Thr505 for PKCδ, were detected.

[5] = test system: K-Ras mutant pancreatic, lung, and colon cancer cell lines, leukemia cell lines; experiment: Proliferation assays, panel of cancer cell lines (summary statements); type: cell-based
Procedure: Briefly, cells at a density of 1,000-10,000 cells/well were seeded in 96-well plates and incubated at 37′C for 24 hours. A series of 9 different concentrations of compound stocks (500×) were created by 3-fold serial dilution in DMSO. These compounds were further diluted in culture media and then added to cells so that the final DMSO concentration was 0.2%. After 96 hours of incubation, 50 μL of CellTiter Glo reagent (Promega) was added to each well and luminescence was measured after 10 minutes using EnVision (PerkinElmer). […] The dose range for most compounds was 4.6 nM-30 μM. The dose ranges for some compounds were adjusted downward to 0.46 nM-3 μM or 0.08 nM-0.5 μM or 0.03 nM-0.2 μM. Luminescence from cells treated with […] alone was set as Max and % of inhibition was calculated as follows: Inhibition %=(Max-Sample value)/Max*100. Data was analyzed using XL-fit software (ID Business Solutions Ltd.) and EC50, relative EC50, and % of top inhibition were calculated. The results are shown in Tables 3-6 for pancreatic cancer, lung cancer, colon/gastric cancer, and leukemia cell lines.

[6] = literature reports; cited from earlier work
A549 = experiment: Proliferation assay, PKC inhibitor in combination with PKC activators, A549; type: cell-based; details: Go6983 0.1 μM or 1 μM with K101A or K102
Procedure: To assess if activation of different classes of PKC is required for anti-proliferation effect of PKC activators, Sotrastaurin, a PKC inhibitor targeting both conventional and novel classes of PKC, was tested in combination with PKC activators in the proliferation assays. Proliferation assay in lung cancer cell line A549 (FIG. 15) and in pancreatic cell line MiaPaCa-2 (FIG. 16) was performed as described in Example 1. […] Then, K101A or K102 was tested in 8- or 9-point titrations in the presence of DMSO or Sotrastaurin (0.1 μM or 1 μM). […] Thus, PKC activator-mediated anti-proliferation effects are dependent on activation of PKC isoforms from conventional, or novel, or both classes of PKCs.
To assess if PKC activation is required for anti-proliferation effect of PKC activators in cancer cell lines that are sensitive to these activators, a pan-PKC inhibitor Go6983, targeting classes of PKCs (conventional, novel, atypical, and PKCμ), was tested in combination with PKC activators in the proliferation assays. Proliferation assay in lung cancer cell line A549 (FIG. 17) and in pancreatic cell line MiaPaCa-2 (FIG. 18) was performed as described in Example 1. […] Then, K101A or K102 was tested in 8- or 9-point titrations in the presence of DMSO or Go6983 (0.1 μM or 1 μM). […] Thus, PKC activation is required for anti-proliferation effect of PKC activators.
Proliferation assay was performed as described in Example 1. […] Thus, PKC activator-mediated anti-proliferation effects appear mainly dependent on activation of novel PKC isoforms.

MiaPaCa-2 = experiment: Proliferation assay, PKC inhibitor in combination with PKC activators, MiaPaCa-2; type: cell-based; details: Go6983 0.1 μM or 1 μM with K101A or K102
[7] = test system: PKC isoforms and Erk1/2 in A549 cells; experiment: PKC inhibitor effect on PKC activator-mediated phosphorylation of PKCs and Erk1/2, A549; type: cell-based; details: 30 minutes
Procedure: To assay if PKC inhibitors have any effects on the PKC activator-mediated phosphorylation of PKCs, A549 cells were pre-treated with DMSO, PKC inhibitors Go6983 (0.3 μM or 1 μM) or Sotrastaurin (0.3 μM or 1 μM) for 30 minutes before adding PKC activators K101A (1 μM) or K102 (0.1 μM) for another 30 minutes (FIG. 22). Cell lysis, protein quantitation, and Western blot analysis were performed as described above in Example 2 and 4. […] Phosphorylation of PKCα/β at Thr638/641 was not affected by the inhibitors (FIG. 22A). […] These PKC inhibitor studies indicate that blocking phosphorylation and activation of various isoforms of PKC is correlated with inhibition of the anti-proliferative effects of the PKC activators.
Cell lysis, protein quantitation, and Western blot analysis were performed as described above in Example 2 and 4. […] These PKC inhibitor studies also indicate that phosphorylation and activation of novel PKC isoforms and PKCμ is required for the anti-proliferative effects of the PKC activators whereas phosphorylation of PKCδ at Tyr311 is correlated with inhibition of the anti-proliferative effects of PKC activators.

Mino cells = experiment: Proliferation assay, PKC inhibitors in combination with PKC activators, Mino; type: cell-based; details: Sotrastaurin 0.3/1 μM, Go6983 0.1/1 μM, Go6976 0.3/1 μM, Enzastaurin 1/3 μM
Procedure: PKC inhibitor studies were performed as described in Example 8, 9, and 10. […] Thus, PKC activator-mediated anti-proliferation effects may be dependent on activation of PKC isoforms from the novel PKC class.

Namalwa cells = experiment: Proliferation assay, PKC inhibitors in combination with PKC activators, Namalwa; type: cell-based; details: Sotrastaurin 0.3/1 μM, Go6983 0.1/1 μM, Go6976 0.3/1 μM, Enzastaurin at very high concentration of 10 μM
Procedure: PKC inhibitor studies were performed as described in Example 15. […] Thus, PKC activator-mediated anti-proliferation effects may be dependent on activation of novel PKC isoforms.

[8] = test system: PKC isoforms and Erk1/2 in Mino and Namalwa cells; experiment: PKC inhibitor effect on K101A-mediated phosphorylation of PKCs and Erk1/2 in Mino and Namalwa cells; type: cell-based
Procedure: Cell lysis, protein quantitation, and Western blot analysis were performed as described above in Example 2 and 4. […] Again, these PKC inhibitor studies indicate the anti-proliferative effects of the PKC activators appear to be positively associated with phosphorylation and activation of novel PKC isoforms and PKCγ, and negatively associated with the phosphorylation of PKCδ at Tyr311.

[9] = inhibitor pre-treatment 0.3 μM or 1 μM

What does the source list for `CCCCCCCCCCCCCC(=O)O[C@@H]1[C@@H](C)[C@@]2(O)[C@@H](C=C(CO)C[C@]3(O)C(=O)C(C)=C[C@@H]23)[C@@H]2C(C)(C)[C@]12OC(C)=O` [Compound K-103, 12-O-Tetradecanoylphorbol-13-acetate]?
number of colonies formed in soft agar (A549 cells; 7-10 days, 9-point dilution series): reduced the number of colonies; potency rank in soft agar assay (A549 cells; K103, followed by K102, K101A, and K101E): Most potent compound; phosphorylation of PKC substrates (global activation of PKC) [1]: potently elevated; phosphorylation of PKC substrates (global activation of PKC) [2]: potently elevated; P-PKCδ (Thr505) and P-PKCδ/θ (Ser643/676) [3]: potently increased; P-PKC (pan)(βII Ser660) and P-PKCα/β (Thr638/641) ([3]; high levels already in DMSO treated cells): no further increases; PKCμ activation, phosphorylation at Ser744/748 (PKCμ): observed for all four cancer cell lines; PKCμ activation, phosphorylation at Ser916 (PKCμ): observed primarily in cell lines A549 and Pan 02,13; also recorded: observed primarily in cell lines A549 and Panc02.13; PKCδ activation, phosphorylation at Tyr311 (PKCδ): observed for PKC activator insensitive cell lines HCT116 and SW620 but not as significantly for sensitive cell lines A549 and Pan 02,13; also recorded: observed for cell lines HCT116 and SW620 but not as significantly for cell lines A549 and Panc02.13; reducing the phosphorylation at βII Ser660 of PKC (pan), to a lesser extent Thr638/641 of PKCα/β [4]: more potent; potency in proliferation inhibition relative to prostratin [5]: more potent in proliferation inhibition; tumor promotion [6]: tumor-promoting

What does the source list for `COc1ccc2c(c1)c(C1=C(c3c[nH]c4ccccc34)C(=O)NC1=O)cn2CCCN(C)C` [Go6983]?
effect on PKC activator-mediated anti-proliferation effects (A549): inhibited the PKC activator-mediated anti-proliferation effects in a dose-dependent manner; effect on PKC activator-mediated anti-proliferation effects (MiaPaCa-2): inhibited the PKC activator-mediated anti-proliferation effects in a dose-dependent manner; K101A- and K102-induced phosphorylation of Erk1/2 [7, 9]: blocked dose-dependently; K101A- or K102-induced phosphorylation, P-PKCμ (Ser916), P-PKCμ (Ser744/748), P-PKCδ (Thr505) [7, 9]: blocked in a dose-dependent manner; Phosphorylation of PKCα/β at Thr638/641 [7, 9]: not affected; K101A- or K102-induced phosphorylation of PKCμ at Ser916 or Ser744/748, PKCδ at Thr505, and Erk ([7]; inhibitor pre-treatment 1 μM): completely abolished; phosphorylation of PKCδ at Tyr311 induced by PKC inhibitor ([7]; inhibitor pre-treatment 1 μM): induced phosphorylation of PKCδ at Tyr311; effect on PKC activator-mediated anti-proliferation effects (Mino cells): dose-dependently blocked; effect on PKC activator-mediated anti-proliferation effects (Namalwa cells): dose-dependently blocked; phosphorylation of PKCδ at Tyr311 induced by PKC inhibitor ([8]; inhibitor pre-treatment 30 minutes): induced robust phosphorylation; K101A-induced phosphorylation of PKCμ at Ser916 or Ser744/748, PKCδ at Thr505, and Erk ([8]; inhibitor pre-treatment 30 minutes (Go6983, Sotrastaurin 1 μM)): completely abolished
